Values of other authors in US20080124416A1 (RENAISSANCE HERBS, INC., priority 2006, published 2008).

Columns and labels:
[1] = in vitro
hepatic fibrosis = conditions: 12.5 or 25 mg/kg p.o.
[2] = system: human lens epithelial (HLE) cells; conditions: in vitro
[3] = system: diabetes (streptozotocin-induced); conditions: oral, 50 or 100 μg/kg/day for 14 days
[4] = system: cultured bone cells from the femoral tissues; conditions: micromole amounts
[5] = system: rat cortical and trabecular bone tissues
[6] = system: osteoblastic MC3T3-E1 cells
[7] = in vivo

With `CC1=C(/C=C/C(C)=C/C=C/C(C)=C/C=C/C=C(C)/C=C/C=C(C)/C=C/C2=C(C)C[C@@H](O)CC2(C)C)C(C)(C)C[C@H](O)C1` [zeaxanthin] as the compound, how does the “antioxidative activity against A2-PE, a pro-oxidant protein in retinal pigment cells” value [1] read?
The value was “antioxidative activity”.

What about the “TBARS, collagen deposition, 4-hydroxyproline levels, serum ALP and AST” value (hepatic fibrosis) of the same compound?
Its value is “significantly decreased”.

And the “activities of glutathione-S-transferase and glutathione” value (hepatic fibrosis)?
Its value is “significantly increased”.

What about the “UVB light-induced lipid peroxidation” value [2] of the same compound?
The value was “inhibits”.

For `CC1=C(/C=C/C(C)=C/C=C/C(C)=C/C=C/C=C(C)/C=C/C=C(C)/C=C/C2=C(C)C[C@@H](O)CC2(C)C)C(C)(C)CCC1` [β-cryptoxanthin], which “symptoms of diabetes (serum glucose, triglycerides, calcium, body weight, bone loss)” value [3] is on record?
Its value is “significantly attenuate”.

What about the “alkaline phosphatase activity and calcium content” value [4] of the same compound?
The value was “significantly increases”.

What about the “decrease in calcium content induced by prostaglandin E2 and parathyroid hormone” value [5] of the same compound?
Its value is “completely inhibits”.

What about the “transcriptional activity, proliferation, cell differentiation and mineralization” value [6] of the same compound?
Its value is “stimulates”.

What about the “osteoblast-like cell formation induced by bone-resorbing factors” value (mouse marrow cultures) of the same compound?
Its value is “potently inhibits”.

For `CCCCCCCCCCCCCCCC(=O)O[C@@H]1CC(C)=C(/C=C/C(C)=C/C=C/C(C)=C/C=C/C=C(C)/C=C/C=C(C)/C=C/C2=C(C)CCCC2(C)C)C(C)(C)C1` [β-Cryptoxanthinpalmitate], which “human bioavailability of esterified vs free form” value [7] is on record?
Its value is “comparable”.
